Measurements from US20190166835A1, “Fungal Trisaccharide Ester Compounds and Use Thereof in Preparing Agents for Preventing and Controlling Plant Fungal Diseases” (SOUTH CHINA BOTANICAL GARDEN, CHINESE ACADEMY OF SCIENCES, priority 2017, published 2019).

Key:
[1] = system: Colletotrichum gloeosporioides; assay: agar diffusion test, in vitro inhibitory activity; assay type: cell-based; conditions: 500 μg per 6 mm filter paper, PDA, 28° C., 72 or 96 hours
Excerpt: (§1) Experiment of in vitro inhibitory activities of the trisaccharide ester compounds 1 to 5 obtained in embodiment 2 against common plant pathogenic fungi of twelve genus.
(§2) The fungi used in the experiments include: 1) Alternaria solani (causing early blight of tomatoes), 2) Botryospuaeria berengeriana (causing ring rot of apples), 3) Botrytis cinerea (causing grey mould of tomatoes), 4) Colletotrichum gloeosporioides (causing anthracnose of mangos), 5) Curvularia lunata (which will infect bananas), 6) Fusarium oxysporium (causing fusarium wilt of bananas and watermelons), 7) Geotrichum citri-aurantii (causing sour rot of citrus), 8) Helminthosporium maydis (causing southern corn leaf blight), 9) Penicillium italicum (causing blue mould of citrus), 10) Peronophythora litchii (which will infect litchi), 11) Rhizoctonia solani (causing sheath blight of rice), and 12) Ustilaginoidea virens (causing false smut of rice).
(§3) The antifungal activities of the compounds 1 to 5 were determined by the agar diffusion test. The fungi were activated and respectively seeded onto petri dishes containing PDA solid culture medium, and spread uniformly with T-shaped spreaders. Each compound was dissolved in methanol to give a 50 mg/mL solution. 10 μL of the solution was then added dropwise onto a filter paper (with a diameter of 6 mm) and let dry in the clean bench such that each filter paper contained 500 μg of the compound eventually. The filter papers were then pressed to the pertri dishes mentioned above and left to incubate in dark at 28° C. for 72 or 96 hours, and then the inhibition widths were measured (a inhibition width refers to an average diameter of the zones of inhibition), wherein filter papers containing a same volume of methanol were used as negative controls.

Curvularia lunata = assay: agar diffusion test, in vitro inhibitory activity; assay type: cell-based; conditions: 500 μg per 6 mm filter paper, PDA, 28° C., 72 or 96 hours
Excerpt: as §1, §2, §3

Alternaria solani = assay: agar diffusion test, in vitro inhibitory activity; assay type: cell-based; conditions: 500 μg per 6 mm filter paper, PDA, 28° C., 72 or 96 hours
Excerpt: as §1, §2, §3

Helminthosporium maydis = assay: agar diffusion test, in vitro inhibitory activity; assay type: cell-based; conditions: 500 μg per 6 mm filter paper, PDA, 28° C., 72 or 96 hours
Excerpt: as §1, §2, §3

Botrytis cinerea = assay: agar diffusion test, in vitro inhibitory activity; assay type: cell-based; conditions: 500 μg per 6 mm filter paper, PDA, 28° C., 72 or 96 hours
Excerpt: as §1, §2, §3

[2] = system: Geotrichum citri-aurantii; assay: agar diffusion test, in vitro inhibitory activity; assay type: cell-based; conditions: 500 μg per 6 mm filter paper, PDA, 28° C., 72 or 96 hours
Excerpt: as §1, §2, §3

Rhizoctonia solani = assay: agar diffusion test, in vitro inhibitory activity; assay type: cell-based; conditions: 500 μg per 6 mm filter paper, PDA, 28° C., 72 or 96 hours
Excerpt: as §1, §2, §3

Peronophythora litchii = assay: agar diffusion test, in vitro inhibitory activity; assay type: cell-based; conditions: 500 μg per 6 mm filter paper, PDA, 28° C., 72 or 96 hours
Excerpt: as §1, §2, §3

[3] = system: Botryospuaeria berengeriana; assay: agar diffusion test, in vitro inhibitory activity; assay type: cell-based; conditions: 500 μg per 6 mm filter paper, PDA, 28° C., 72 or 96 hours
Excerpt: as §1, §2, §3

Ustilaginoidea virens = assay: agar diffusion test, in vitro inhibitory activity; assay type: cell-based; conditions: 500 μg per 6 mm filter paper, PDA, 28° C., 72 or 96 hours
Excerpt: as §1, §2, §3

Fusarium oxysporium = assay: agar diffusion test, in vitro inhibitory activity; assay type: cell-based; conditions: 500 μg per 6 mm filter paper, PDA, 28° C., 72 or 96 hours
Excerpt: as §1, §2, §3

Penicillium italicum = assay: agar diffusion test, in vitro inhibitory activity; assay type: cell-based; conditions: 500 μg per 6 mm filter paper, PDA, 28° C., 72 or 96 hours
Excerpt: as §1, §2, §3

[4] = system: pathogenic fungi in the postharvest storage of citrus fruits; assay: preservation of citrus in postharvest storage (infection index); assay type: in vivo, citrus reticulata blanco cv.shiyueju; conditions: soaked 5 minutes, stored at 25° C. for 15 days
Procedure: Experiment of the trisaccharide ester extract obtained in embodiment 2 in the preservation of citrus in postharvest storage Samples for the experiment: the trisaccharide ester extract (containing the compounds 1 to 4, with a mass ratio of about 60:35:4:1) obtained in embodiment 2 was dissolved in a small volume of ethanol and diluted with water to give treating solutions (200, 400 and 600 mg/L). The citrus fruits were soaked in the treating solutions for 5 minutes and left to dry. The fruits were then put in plastic baskets (the plastic baskets were surface-sterilized with 75% ethanol and left to dry in advance), sealed in polyethylene bags with a thickness of 0.02 mm, and stored at 25° C. for 15 days. The fruits were observed and their infection indexes were recorded. Calculation of the infection index: infection index=Σ(infection level×amount of fruits of the level)/([…]×total amount of fruits)×100%; infection level: 0 refers to “no obvious infection”, 1 refers to “slight infection”, 2 refers to “infection area smaller than or equal to ¼ of fruit surface”; 3 refers to “infection area larger than ¼ and smaller than ½ of fruit surface”, and 4 refers to “infection area larger than or equal to ½ of fruit surface”. Three replicates were set for each treating solution, and 60 fruits for each replicate. Fruits for the experiments: citrus reticulata blanco cv.shiyueju, harvested from Conghua Orchard.

| Structure (SMILES) | Zone of inhibition [1] [mm] | Zone of inhibition (Curvularia lunata) [mm] | Zone of inhibition (Alternaria solani) [mm] | Zone of inhibition (Helminthosporium maydis) [mm] | Zone of inhibition (Botrytis cinerea) [mm] | Zone of inhibition [2] [mm] | Zone of inhibition (Rhizoctonia solani) [mm] | Zone of inhibition (Peronophythora litchii) [mm] | Zone of inhibition [3] [mm] | Zone of inhibition (Ustilaginoidea virens) [mm] | Zone of inhibition (Fusarium oxysporium) [mm] | Zone of inhibition (Penicillium italicum) [mm] | Infection index ([4]; treating solution 200 mg/L) [%] | Infection index ([4]; treating solution 400 mg/L) [%] | Infection index ([4]; treating solution 600 mg/L) [%] |
| --- | --- | --- | --- | --- | --- | --- | --- | --- | --- | --- | --- | --- | --- | --- | --- |
| CCC(C)CCCCCCC(=O)O[C@@H]1C(CO[C@H]2OC(CO)[C@H](O)[C@H](O)C2O)O[C@H](O[C@H]2OC(CO)[C@@H](O)[C@H](O)C2O)C(OC(=O)CCC(C)CC)[C@H]1OC(=O)C(C)CC (stereo partly drawn) [Compound 1, 6-O-β-L-mannosyl-3-O-(2-methylbutyryl)-4-O-(8-methyldecanoyl)-2-O-(4-methylhexanoyl)trehalose] | 12 | 12 | 12 | 22 | 15 | 17 | 18 | 13 | 16 | 22 | 10 | 20 |  |  |  |
| CN(C)C(=S)SSC(=S)N(C)C [Thiram] |  |  |  |  |  |  |  |  |  |  |  |  | 29.0 ± 1.9 | 31.4 ± 0.9 | 29.2 ± 1.0 |
| CCCCCCCC(=O)O[C@@H]1C(CO[C@H]2OC(CO)[C@H](O)[C@H](O)C2O)O[C@H](O[C@H]2OC(CO)[C@@H](O)[C@H](O)C2O)C(OC(=O)CCC(C)CC)[C@H]1OC(=O)C(C)CC (stereo partly drawn) [Compound 4] | 14 | 15 | 12 | 18 | 10 | 12 | 18 | 12 | 10 | 20 | 10 | 18 |  |  |  |
| CCCCCCCCCC(=O)O[C@@H]1C(CO[C@H]2OC(CO)[C@H](O)[C@H](O)C2O)O[C@H](O[C@H]2OC(CO)[C@@H](O)[C@H](O)C2O)C(OC(=O)CCC(C)CC)[C@H]1OC(=O)C(C)CC (stereo partly drawn) [Compound 2, 4-O-decanoyl-6-O-β-L-mannosyl-3-O-(2-methylbutyryl)-2-O-(4-methylhexanoyl)trehalose] | 10 | 15 | 14 | 18 | 14 | 15 | 16 | 12 | 14 | 20 | 12 | 22 |  |  |  |
| CCC(C)CCCCCCC(=O)O[C@@H]1C(CO[C@H]2OC(CO)[C@H](O)C(O)C2O)O[C@H](O[C@H]2OC(COC(C)=O)[C@@H](O)C(O)C2O)C(OC(=O)CCC(C)CC)C1OC(=O)C(C)CC (single isomer, unassigned) [Compound 5, 6-O-β-L-mannosyl-3-O-(2-methylbutyryl)-4-O-(8-methyldecanoyl)-2-O-(4-methylhexanoyl)-6′-O-acetyltrehalose] | 8 | 16 | 10 | 18 | 9 | 15 | 12 | 10 | 8 | 16 | 8 | 14 |  |  |  |
